Assay [1] concerns HIF-1α. As to the kind of experiment: HIF-1α level in hypoxic Hela cells (immunofluorescence imaging, Western blot). The class given is cell-based, human. The method, then:
(§1) HeLa, Hek293T, MDA-MB-231, 4T1 or B16F10 cells (1.5×10^6 cells/mL) were treated with J266 (10 μM) for 6 h before incubating with JQ1-CBT at the indicated concentrations and time. This entire incubation was performed in normoxia condition. For NTR-moiety caged JW4, the cells were treated with JW4 (10 μM) 6 h prior to the addition of JQ1-CBT for a subsequent 12 h, and was performed entirely under hypoxic condition. Comparison of the downstream effect between the controls and drug-treated cells were completely executed in hypoxic condition. To work up, the cells were washed with cold PBS (pH 7.4) twice, and lysed with RIPA buffer supplemented with protease inhibitor cocktail and phosphatase inhibitor cocktail for 10 min at 4° C. Then, the lysed cells were collected and centrifuged at 13,500 rpm for 20 min at 4° C. The supernatant was collected and the protein concentration was analyzed by NanoDrop™ 2000/2000c Spectrophotometers. The lysate volumes were fine-tuned and loaded onto a Mini-PROTEAN® TGX™ 4-20% Precast Gel and was separated by SDS-PAGE. Then, the gel was transferred onto a PVDF membrane (100 V, 90 min, 4° C.), washed with TBS-T twice, and blocked with 1% BSA for 1 h at r.t. Next, the membrane was incubated with primary antibody overnight at 4° C., washed thrice with TBS-T, followed by incubation with goat anti-rabbit IgG (H+L) Secondary Antibody, HRP for 1 h. The membrane was supplemented with Radiance Q chemiluminescent ECL substrate and visualized using Amersham™ ImageQuant™ 800 biomolecular imager. B-Tubulin was used as the internal control.
Hela cells were plated at a density of 8×10^4 cells/mL in each well of the eight-well ibidi dishes before experiment. To sustain the hypoxia-induced factor throughout the drug treatment process, drug incubation was performed entirely in hypoxic chamber. […] The fluorescence of the alleviated HIF-1α expression upon drug treatment was visualized with Carl Zeiss LSM 800 microscopes (Hoechst 33258: Ex=405 nm, Em=460/50 nm; Alexa Fluor 488: Ex=488 nm, Em=515/30 nm; Alexa Fluor 594: Ex=561 nm, Em=617/20 nm).
On the technique in general: A western blot detects proteins with antibodies after separation by electrophoresis.

For a further assay, the system named is zebrafish larvae. The experiment in a line: Vascularization of vhl mutant and wide type zebrafish larvae (confocal imaging). Format: in vivo. To be noted: vhl^hu2117 crosses, 10 μM; non-treatment approximately one quarter.
Assay [2] addresses T1, BRD4 (Homo sapiens, UniProt O60885). The experiment in a line: Hook effect: BRD4 degradation at extended degrader concentrations under hypoxia. Also on record: endogenous in cells. The class given is cell-based. The method, then: as §1, with “The membrane was supplemented with Radiance Q chemiluminescent ECL substrate and visualized using Amersham™ ImageQuant™ 800 biomolecular imager. B-Tubulin was used as the internal control.” left out

The test system of another assay is zebrafish embryos. The experiment in a line: Yolk extension phenotype of zebrafish embryos. The note with it: 50 μM, hypoxia-normoxia alternating 8 h. The class given is in vivo. The method, then:
Wide type zebrafish embryos at 12 hpf was incubated with J252 (50 μM), JW4 (50 μM), or the mixture of JW4 (50 μM) and JQ1-CBT (50 μM) in hypoxia-normoxia alternative condition for 8 h at 28° C. After that, the embryos were further incubated in normoxia condition at 28° C. for 16 h before the yolk extension phenotypes were visualized under Zeiss LSM800 confocal microscope using bright-field channel. Embryos with JW4+JQ1-CBT treatment under normoxia were used as the controls.

The next assay has as its system NTR. As to the kind of experiment: NTR enzymatic cleavage in vitro (LC-MS). The class given is biochemical. The source says: Upon the exertion of external enzymatic stimuli, the NTR-responsive moiety undergoes self-immolation to unleash the amino group. Simultaneously, the presence of a reduction agent cleaves the -StBu group to liberate thiol group (—SH), creating the cleaved-J266. The presence of a readily reactive amino group and thiol group on cleaved-J266, with the co-insertion of JQ1-CBT would spontaneously induce the CBT-cysteine orthogonal click conjugation, shaping the luciferin-based structure in click-J252 for targeted protein disruption (FIG. 12a). To validate the kinetics of ENCTAC formation, JW4 was tested against the presence of ntr enzyme accompanied by the co-factor, NADH, at 37° C. across a range of time settings in LC-MS system. The formation of J252 in the presence of J266 and JQ1-CBT was also evaluated by LC-MS.
A MS vial was sequentially added JW4 (10 μM), nicotinamide adenine dinucleotide (NADH, 0.5 mM) and NTR (40 μg/mL), and the mixture was dissolved in PBS (pH 7.4, 10 mM) to a total volume of 500 μL. The mixture in the vial was vortexed and incubated at 37° C. with varying time control from 0-240 min. Structural mass analysis was performed to observe any molecular mass alteration.
A MS vial was sequentially added JW4 (10 μM) or J268 ([…]), NADH (0.5 mM) and NTR (concentration range of 0-40 μg/mL), and the mixture was dissolved in PBS (pH 7.4, 10 mM) to a final volume of 500 μL. The mixture in the vial was vortexed and incubated at 37° C. for 120 min before subjecting to structural mass analysis.

Assay [3] concerns broad range of enzymes and chemical agents. As to the kind of experiment: Selectivity of JW4 with or without NADH (LC-MS). Format: biochemical. To be noted: JW4 10 μM, reagents 0-40 μg/mL, 120 min. The procedure:
A MS vial was sequentially added JW4 (10 μM), a reagent selected from sodium chloride, calcium chloride, ascorbic acid, glucose, cysteine, furin, CtsB, monoamine oxidase A (MAO-A) and monoamine oxidase B (MAO-B) (concentration range of 0-40 μg/mL), with or without the addition of NADH (0.5 mM) and the mixture was dissolved in PBS (pH 7.4, 10 mM) to a final volume of 500 μL. The mixture in the vial was vortexed and incubated at 37° C. for 120 min before it was subject to structural mass analysis.

The target in assay [4] is T1, BRD4. As to the kind of experiment: BRD4 degradation by Western blot in HEK293T cells. The class given is cell-based. Further details: endogenous in cells; host or cells: HEK293T. To be noted: 12 h. From the text: The effective production of BRD4 heterobifunctional degraders in solution allowed us to investigate the function of ENCTAC components in biological applications. […] Particularly, NTR responsive JW4, the pomalidomide-containing compound that can target CRBN and is a universal E3 ligase, is expected to be uncaged through NTR-assisted nitro and GSH reduction once it enters the hypoxic cells. The exposed cysteine groups are then readily linked with the CBT moieties on the JQ1-CBT fragments via a specific bioorthogonal click reaction. Besides, the JQ1 warheads are presumed to be simultaneously bound to the BRD4 proteins, thus forming bifunctional degraders in-situ for localized proteolysis (FIG. 17a). […] As proof-of-concept, the control molecule J266 that can only respond to GSH but not NTR, was first introduced into the HEK293T cell line (for 6 h), with subsequent addition of the JQ1-CBT (for 12 h). After intracellular formation of the click-J252, the proteolysis process was observed by western blot analysis.
HeLa, Hek293T, MDA-MB-231, 4T1 or B16F10 cells (1.5×10^6 cells/mL) were treated with J266 (10 μM) for 6 h before incubating with JQ1-CBT at the indicated concentrations and time. This entire incubation was performed in normoxia condition. […] The supernatant was collected and the protein concentration was analyzed by NanoDrop™ 2000/2000c Spectrophotometers. […]

Assay [5] has as its system HIF-1α. The experiment in a line: HIF-1α level in B16F10 tumour lysates of mice (Western blot). The class given is in vivo, mouse. To be noted: intratumoral 5 mg/kg every 4 h up to 8 h. The method, then:
(§2) B16F10 cells at a density of 2×10^6 cells were injected subcutaneously into the right flank of six- to eight-week-old mice. Once the tumours became palpable, intratumoral injection of the buffer solution as vehicle, JQ1, and JW4 and JQ1-CBT at dosage of 5 mg/kg were performed for every 4 h up to 8 h. The mice were sacrificed and protein extraction were carried out. The protein levels in lysis samples were analysed by western blot by following the protocol in Example 12. Histology and immunofluorescence staining were performed by following the protocol in Example 13. Specifically, the resected tumours were fixed in 4% paraformaldehyde for 48 h, washed with PBS, and gradually transferred to 15% sucrose, followed by 30% sucrose before being embedded in O.C.T. compound. Five-micrometre cryosections of the tumour samples were dehydrated and blocked with a blocking buffer containing 2% BSA, 1% Tween 20, 3% Triton X, and horse serum for an hour before being incubated with primary antibodies, followed by a washing step and then incubation with secondary antibodies. The primary antibodies used were Ki67 and CD31. […] Images were captured using the EVOS M5000 imaging system (Thermo Fischer Scientific, Waltham, MA, USA) and quantified using ImageJ.

A further assay concerns CA9. The experiment in a line: CA9 level in hypoxic Hela cells (Western blot). The class given is cell-based, human. The method, then: as §1, with “The membrane was supplemented with Radiance Q chemiluminescent ECL substrate and visualized using Amersham™ ImageQuant™ 800 biomolecular imager. B-Tubulin was used as the internal control.” left out
Another assay relates to B16F10 mouse melanoma. The experiment in a line: Antitumour efficacy in B16F10 tumour bearing C57BL/6J mice. Format: in vivo. To be noted: daily treatment, 5 days, vs vehicle.
For a further assay, the system named is c-Myc. As to the kind of experiment: c-Myc level in B16F10 tumour lysates of mice (Western blot). The class given is in vivo, mouse. The note with it: intratumoral 5 mg/kg every 4 h up to 8 h. The method, then:
as §2

The target in assay [6] is T2, BRD4 (Mus musculus, UniProt Q9ESU6).
T2 construct: from tissue; host or cells: B16F10 tumour in C57BL/6J mice, tumour lysate
As to the kind of experiment: BRD4 level in B16F10 tumour lysates of mice (Western blot). The class given is in vivo. To be noted: intratumoral 5 mg/kg every 4 h up to 8 h. From the text:
We further investigated the feasibility of tumour microenvironment-activatable epigenetic BRD4 protein degradation and further validated the potential anti-tumour efficacy of ENCTAC in a C57BL/6J mice model. Typically, we implanted B16F10 mouse melanoma cell line into the right flank of living mice and the solid tumour was monitored to grow until palpable size before undergoing targeted protein disruption and therapeutic studies (FIG. 24a). The living mice bearing tumours were first subject to NTR-Cy7, a reported NTR enzyme responsive probe molecule (Li, Y. et al., J. Am. Chem. Soc. 2015, 137, 6407-[…]), followed by animal imaging scanning.
B16F10 cells at a density of 2×10^6 cells were injected subcutaneously into the right flank of six- to eight-week-old mice. Once the tumours became palpable, intratumoral injection of the buffer solution as vehicle, JQ1, and JW4 and JQ1-CBT at dosage of 5 mg/kg were performed for every 4 h up to 8 h. The mice were sacrificed and protein extraction were carried out. The protein levels in lysis samples were analysed by western blot by following the protocol in Example 12. Histology and immunofluorescence staining were performed by following the protocol in Example 13. […] Images were captured using the EVOS M5000 imaging system (Thermo Fischer Scientific, Waltham, MA, USA) and quantified using ImageJ.

Experimental for zebrafish larvae: Vasculature zebrafishes were obtained from natural crosses of the AB wild-type strain or vhl^+/hu2117 carriers on the fli1a:egfp^y1 transgenic background (which fluorescently marks the vasculature). JW4 and JQ1-CBT were dissolved in DMSO and the mixture was applied to embryos at equimolar concentration of 10 μM, with J252 (10 μM) and JQ1 (10 μM) used for the control experiments. […] The vascular plexus was imaged on a Zeiss LSM800 confocal microscope. Green: blood vessel tracker, .ex: 488 nm, .em: 520/30 nm; red: . ex: 564 nm, .em: 610/30 nm.

Regarding `Cc1sc2c(c1C)C(c1ccc(Cl)cc1)=N[C@@H](CC(=O)Oc1ccc3nc(C4N=C(C(=O)NCCOCCOCC(=O)Nc5cccc6c5C(=O)N(C5CCC(=O)NC5=O)C6=O)CS4)sc3c1)c1nnc(C)n1-2` (stereo partly drawn) [J252], the HIF-1α protein level result in the assay on HIF-1α [1] is recorded as “able to downregulate”. The same compound showed a vascularized larvae in the assay on zebrafish larvae of 22.5%. Further, on BRD4 [2] (50 μM), the BRD4 degradation level result is listed as “around 20%”. For the same compound, the “concentration at which decrease in efficiency of proteolysis started (hook effect)” value at BRD4 [2] (hypoxia) is 5 µM. Further, the “yolk extension phenotype at 36 hpf” value with zebrafish embryos is “similarly less extension of yolk”.

The term Km denotes the substrate concentration at which the rate is half of its maximum. Consider `CC(C)(C)SSC[C@@H](NC(=O)OCc1ccc([N+](=O)[O-])cc1)C(=O)NCCOCCOCC(=O)Nc1cccc2c1C(=O)N(C1CCC(=O)NC1=O)C2=O` (stereo partly drawn) [JW4, Pomalidomide-PEG-NTR], for which, in the assay with NTR (10 μM substrate, NTR 40 μg/mL, NADH, 37° C., span of 4 h), the “NTR enzymatic uncaging (self-immolation) followed by LC-MS” value is reported as “near to completion”. The “Kcat of NTR uncaging” value with NTR (NTR, NADH 0.5 mM, PBS pH 7.4, 37° C.) was found to be 0.000262 s⁻¹. Also, the Km in the assay on NTR (NTR, NADH 0.5 mM, PBS pH 7.4, 37° C., read-out: Km of NTR uncaging) is 101 µM. In addition, in the assay on HIF-1α [1], the HIF-1α protein level entry was “did not induce HIF-1α elimination”. Also, the “cleavage by different components and enzymes” value in assay [3] was “no obvious cleavage except for NTR+NADH”. At BRD4 [4], the “BRD4 degradation by independent treatment (alone)” value is listed as “did not induce any degradation”.

`Cc1sc2c(c1C)C(c1ccc(Cl)cc1)=N[C@@H](CC(=O)OC(C)(C)C)c1nnc(C)n1-2` [JQ1]: in the assay on HIF-1α [5], the “HIF-1α protein level in tumour” value is “trivial effect”. Also, in the assay with CA9, the CA9 amount entry is listed as “partially downgrade”. In addition, in the assay on B16F10 mouse melanoma, the “tumour progression (serial volumetric measurement)” value is on record as “reduced tumour growth”. Moreover, the HIF-1α protein level entry with HIF-1α [1] is “did not alter”. For the same compound, in the assay with c-Myc, the “c-Myc expression in tumour” value was “downgrade c-Myc expression”. In the assay with zebrafish larvae, this compound registered a vascularized larvae of 21.3%. In addition, at BRD4 [6], the “BRD4 protein level in tumour” value was “trivial effect”.

The values above are taken from patent US20240239787A1, “COMPOUNDS FOR USE IN THE TREATMENT OF CANCER” (Nanyang Technological University, priority 2021, published 2024).
